Here are results for seven molecules from PubChem BioAssay AID256 (DTP/NCI, 2004).

The assay has as its system CD2F1 mice, L1210 leukemia ip, survival T/C. Briefly: NCI In Vivo Anticancer Drug Screen. Data for tumor model L1210 Leukemia (intraperitoneal) in CD2F1 (CDF1) mice. Conditions: higher = longer survival. In a few lines: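 Compound-dosed mice with transplantable tumor versus matched vehicle controls; endpoint ratio T/C reported.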
The mark [1] stands for this setting: endpoint: mean survival time, dose: 100.0 mg/kg/injection, schedule: Q01DX005 (ip), vehicle: saline.

Structures are written as SMILES. Toxic doses and inconclusive results are not listed.

Take `CCN(CC)CCNc1nc(-c2cc(C(F)(F)F)cc(C(F)(F)F)c2)nc(C(Cl)(Cl)Cl)n1`: the T/C was 100 % of control under setting [1]; 93 % of control (endpoint: mean survival time, dose: 100.0 mg/kg/injection, schedule: Q01DX009 (ip), vehicle: saline); 103 % of control (endpoint: mean survival time, dose: 200.0 mg/kg/injection, schedule: Q01DX005 (ip), vehicle: saline); 93 % of control (endpoint: mean survival time, dose: 200.0 mg/kg/injection, schedule: Q01DX009 (ip), vehicle: saline); 95 % of control (endpoint: mean survival time, dose: 400.0 mg/kg/injection, schedule: Q01DX005 (ip), vehicle: saline); 93 % of control (endpoint: mean survival time, dose: 400.0 mg/kg/injection, schedule: Q01DX009 (ip), vehicle: saline).

As for `CC(C)[C@]12O[C@H]1[C@@H]1O[C@]13[C@]1(O[C@H]1C[C@H]1C4=C(C(=O)OC4)[C@@H](O)C[C@@]13C)[C@@H]2O`, the T/C (endpoint: mean survival time, dose: 0.8 micrograms/kg/injection, schedule: Q01DX009 (ip), vehicle: saline + alcohol) was 94 % of control; the T/C (endpoint: mean survival time, dose: 1.6 micrograms/kg/injection, schedule: Q01DX009 (ip), vehicle: saline + alcohol) is 92 % of control; the T/C (endpoint: mean survival time, dose: 3.1 micrograms/kg/injection, schedule: Q01DX009 (ip), vehicle: saline + alcohol) was 96 % of control; the T/C (endpoint: mean survival time, dose: 6.3 micrograms/kg/injection, schedule: Q01DX009 (ip), vehicle: saline + alcohol) is 92 % of control; the T/C (endpoint: mean survival time, dose: 12.5 micrograms/kg/injection, schedule: Q01DX009 (ip), vehicle: saline + alcohol) was 89 % of control; the T/C (endpoint: mean survival time, dose: 25.0 micrograms/kg/injection, schedule: Q01DX009 (ip), vehicle: saline + alcohol) was 93 % of control. The T/C was 106 % of control (endpoint: mean survival time, dose: 32.0 micrograms/kg/injection, schedule: Q01DX009 (ip), vehicle: saline + alcohol); 107 % of control (endpoint: mean survival time, dose: 50.0 micrograms/kg/injection, schedule: Q01DX009 (ip), vehicle: saline + alcohol); 121 % of control (endpoint: mean survival time, dose: 63.0 micrograms/kg/injection, schedule: Q01DX009 (ip), vehicle: saline + alcohol); 115 % of control (endpoint: mean survival time, dose: 100.0 micrograms/kg/injection, schedule: Q01DX009 (ip), vehicle: saline + alcohol); 156 % of control (endpoint: mean survival time, dose: 200.0 micrograms/kg/injection, schedule: Q01DX009 (ip), vehicle: saline + alcohol); 188 % of control (endpoint: mean survival time, dose: 250.0 micrograms/kg/injection, schedule: Q01DX009 (ip), vehicle: saline + alcohol). Also, the T/C is, setting by setting: (endpoint: mean survival time, dose: 400.0 micrograms/kg/injection, schedule: Q01DX009 (ip), vehicle: saline + alcohol) 207 % of control; (endpoint: mean survival time, dose: 500.0 micrograms/kg/injection, schedule: Q01DX009 (ip), vehicle: saline + alcohol) 93 % of control; (endpoint: median survival time, dose: 8.0 micrograms/kg/injection, schedule: Q03HX024 (ip), vehicle: saline + alcohol) 111 % of control; (endpoint: median survival time, dose: 8.0 micrograms/kg/injection, schedule: Q03HX024 (ip), vehicle: saline) 110 % of control; (endpoint: median survival time, dose: 16.0 micrograms/kg/injection, schedule: Q03HX016 (ip), vehicle: saline + alcohol) 117 % of control; (endpoint: median survival time, dose: 30.0 micrograms/kg/injection, schedule: Q01DX009 (ip), vehicle: saline) 109 % of control. For the same molecule, the T/C was 103 % of control (endpoint: median survival time, dose: 30.0 micrograms/kg/injection, schedule: Q01DX009 (sc), vehicle: saline); 101 % of control (endpoint: median survival time, dose: 31.2 micrograms/kg/injection, schedule: Q01DX009 (ip), vehicle: saline + alcohol); 98 % of control (endpoint: median survival time, dose: 31.2 micrograms/kg/injection, schedule: Q01DX009 (sc), vehicle: saline + alcohol); 151 % of control (endpoint: median survival time, dose: 31.2 micrograms/kg/injection, schedule: Q03HX024 (ip), vehicle: saline + alcohol); 102 % of control (endpoint: median survival time, dose: 60.0 micrograms/kg/injection, schedule: Q01DX009 (sc), vehicle: saline); 191 % of control (endpoint: median survival time, dose: 60.0 micrograms/kg/injection, schedule: Q03HX024 (ip), vehicle: saline). Further, the T/C is, setting by setting: (endpoint: median survival time, dose: 62.0 micrograms/kg/injection, schedule: Q03HX008 (ip), vehicle: saline + alcohol) 123 % of control; (endpoint: median survival time, dose: 62.5 micrograms/kg/injection, schedule: Q01DX009 (ip), vehicle: saline + alcohol) 122 % of control; (endpoint: median survival time, dose: 62.5 micrograms/kg/injection, schedule: Q01DX009 (sc), vehicle: saline + alcohol) 104 % of control; (endpoint: median survival time, dose: 62.5 micrograms/kg/injection, schedule: Q03HX016 (ip), vehicle: saline + alcohol) 118 % of control; (endpoint: median survival time, dose: 62.5 micrograms/kg/injection, schedule: Q03HX024 (ip), vehicle: saline + alcohol) 166 % of control; (endpoint: median survival time, dose: 62.5 micrograms/kg/injection, schedule: Q04DX003 (ip), vehicle: saline + alcohol) 97 % of control. In addition, the T/C runs as follows: (endpoint: median survival time, dose: 125.0 micrograms/kg/injection, schedule: Q01DX009 (sc), vehicle: saline + alcohol) 104 % of control; (endpoint: median survival time, dose: 125.0 micrograms/kg/injection, schedule: Q03HX008 (ip), vehicle: saline + alcohol) 118 % of control; (endpoint: median survival time, dose: 125.0 micrograms/kg/injection, schedule: Q03HX016 (ip), vehicle: saline + alcohol) 111 % of control; (endpoint: median survival time, dose: 125.0 micrograms/kg/injection, schedule: Q03HX024 (ip), vehicle: saline + alcohol) 120 % of control; (endpoint: median survival time, dose: 125.0 micrograms/kg/injection, schedule: Q04DX003 (ip), vehicle: saline + alcohol) 101 % of control; (endpoint: median survival time, dose: 125.0 micrograms/kg/injection, schedule: Q08DX002 (ip), vehicle: saline + alcohol) 98 % of control. Besides, the T/C (endpoint: median survival time, dose: 130.0 micrograms/kg/injection, schedule: Q01DX009 (ip), vehicle: saline) was 151 % of control; the T/C (endpoint: median survival time, dose: 130.0 micrograms/kg/injection, schedule: Q01DX009 (sc), vehicle: saline) was 109 % of control; the T/C (endpoint: median survival time, dose: 250.0 micrograms/kg/injection, schedule: Q01DX001 (ip), vehicle: saline + alcohol) is 113 % of control; the T/C (endpoint: median survival time, dose: 250.0 micrograms/kg/injection, schedule: Q01DX001 (sc), vehicle: saline + alcohol) is 104 % of control; the T/C (endpoint: median survival time, dose: 250.0 micrograms/kg/injection, schedule: Q01DX009 (ip), vehicle: saline + alcohol) was 184 % of control; the T/C (endpoint: median survival time, dose: 250.0 micrograms/kg/injection, schedule: Q01DX009 (ip), vehicle: saline) is 203 % of control. In addition, the T/C (endpoint: median survival time, dose: 250.0 micrograms/kg/injection, schedule: Q01DX009 (sc), vehicle: saline) is 152 % of control; the T/C (endpoint: median survival time, dose: 250.0 micrograms/kg/injection, schedule: Q04DX003 (ip), vehicle: saline + alcohol) was 113 % of control; the T/C (endpoint: median survival time, dose: 250.0 micrograms/kg/injection, schedule: Q08DX002 (ip), vehicle: saline + alcohol) was 109 % of control; the T/C (endpoint: median survival time, dose: 500.0 micrograms/kg/injection, schedule: Q01DX001 (ip), vehicle: saline + alcohol) was 109 % of control; the T/C (endpoint: median survival time, dose: 500.0 micrograms/kg/injection, schedule: Q01DX001 (sc), vehicle: saline + alcohol) was 107 % of control; the T/C (endpoint: median survival time, dose: 500.0 micrograms/kg/injection, schedule: Q01DX009 (ip), vehicle: saline + alcohol) was 239 % of control. The T/C reads like this: (endpoint: median survival time, dose: 500.0 micrograms/kg/injection, schedule: Q01DX009 (ip), vehicle: saline) 255 % of control; (endpoint: median survival time, dose: 500.0 micrograms/kg/injection, schedule: Q01DX009 (sc), vehicle: saline + alcohol) 193 % of control; (endpoint: median survival time, dose: 500.0 micrograms/kg/injection, schedule: Q01DX009 (sc), vehicle: saline) 87 % of control; (endpoint: median survival time, dose: 500.0 micrograms/kg/injection, schedule: Q04DX003 (ip), vehicle: saline + alcohol) 122 % of control; (endpoint: median survival time, dose: 500.0 micrograms/kg/injection, schedule: Q08DX002 (ip), vehicle: saline + alcohol) 108 % of control; (endpoint: median survival time, dose: 1000.0 micrograms/kg/injection, schedule: Q01DX001 (ip), vehicle: saline + alcohol) 109 % of control. For the same molecule, the T/C runs as follows: (endpoint: median survival time, dose: 1000.0 micrograms/kg/injection, schedule: Q04DX003 (ip), vehicle: saline + alcohol) 115 % of control; (endpoint: median survival time, dose: 1000.0 micrograms/kg/injection, schedule: Q08DX002 (ip), vehicle: saline + alcohol) 97 % of control.

Regarding `O=c1[nH]c2ccccc2c2ccccc12`, the T/C was 98 % of control (endpoint: mean survival time, dose: 100.0 mg/kg/injection, schedule: Q01DX009 (ip), vehicle: saline with Tween-80); 90 % of control (endpoint: mean survival time, dose: 200.0 mg/kg/injection, schedule: Q01DX009 (ip), vehicle: saline with Tween-80); 102 % of control (endpoint: mean survival time, dose: 400.0 mg/kg/injection, schedule: Q01DX009 (ip), vehicle: saline with Tween-80).

Take `NC(=O)CCl`: for the setting “endpoint: mean survival time, dose: 100.0 mg/kg/injection, schedule: Q04DX003 (ip), vehicle: saline”, the T/C is 110 % of control.

`Cc1cn(C2CCC(CO)C2)c(=O)[nH]c1=O` (configuration not stated): the T/C (endpoint: mean survival time, dose: 100.0 mg/kg/injection, schedule: Q01DX001 (ip), vehicle: carboxymethylcellulose (CMC)) was 95 % of control; the T/C (endpoint: mean survival time, dose: 200.0 mg/kg/injection, schedule: Q01DX001 (ip), vehicle: carboxymethylcellulose (CMC)) is 95 % of control; the T/C (endpoint: mean survival time, dose: 400.0 mg/kg/injection, schedule: Q01DX001 (ip), vehicle: carboxymethylcellulose (CMC)) was 103 % of control.

As to `Cc1nc2c(=O)n(C3OC(CO)C(O)C3O)cnc2o1` (configuration not stated), under setting [1], the T/C was 103 % of control.

For `COc1ccc(CC(N)C(=O)OCc2ccccc2)cc1N(CCCl)CCCl` (configuration not stated), the T/C by setting is: (endpoint: mean survival time, dose: 3.0 mg/kg/injection, schedule: Q01DX009 (ip), vehicle: saline) 177 % of control; (endpoint: mean survival time, dose: 6.0 mg/kg/injection, schedule: Q01DX009 (ip), vehicle: saline) 118 % of control.
